According to PMC12490239, “Combining BET inhibition with SMAC mimetics restricts tumor growth and triggers immune surveillance in preclinical cancer models” (Cell Reports Medicine, 2025):

Legend:
NCI-H441 = test: cells; design: CellTiter-Glo 2.0 luminescence proliferation/viability assay, single agents, human tumour cell line panel; conditions: Homo sapiens, NCI-H441, 96 h; single agent; read-out: IC50 SMACm
Procedure, shortened: (§1)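 Human tumour cell lines were seeded into assay plates and held at 37°C with 5% CO2 for twenty-four hours, then exposed in triplicate to rising concentrations of the SMAC mimetic, from 4.5 nM to 10 μM, with DMSO as control. After 96 h, viability was read as CellTiter-Glo2.0 luminescence to derive single-agent IC50 values.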

C99 = test: cells; design: CellTiter-Glo 2.0 luminescence proliferation/viability assay, single agents, human tumour cell line panel; conditions: 96 h; single agent; read-out: IC50 SMACm
Procedure, shortened: as §1

Structure (SMILES): CN[C@@H](C)C(=O)Nc1ccc(-c2c(-c3cccnc3OC)nc3cc(C)ccn23)c(C#Cc2ccc3c(C)nccc3c2)n1 [SMACm, BI 891065]
- IC50 (NCI-H441): 6.13 µM
- IC50 (C99): 3.8 µM
